Laboratory results published in patent US4810709A, “Nintrovincaminic acid derivatives having pharmaceutical utility” (Richter Gedeon Vegyeszefi Gyar R.T., priority 1984, dated 1989).
Converted amounts (≈) assume the structure as drawn. Counter-ions that a name gives are not always drawn. Like-named read-outs stand apart in the source and are kept apart here.

Assays:
[1] = tested on: internal carotid artery; test: cerebral blood flow in the internal carotid artery of anaesthetized dogs (vasodilating effect); assay type: in vivo; conditions: 1 mg/kg of body-weight intravenous, chloralose-pentobarbital anaesthetized dogs
Experimental: (§1) The vasodilating effect was studied in dogs anaesthetized by a chloralose-pentobarbital mixture. […] Electromagnetic flow meters were used for measuring the blood flow. The substances under test were intravenously administered in a dose of 1 mg/kg of body-weight to 6 dogs and the percentage changes of the parameters measured were evaluated. Ethyl (+)-apovincamate, a commonly used therapeutic cerebral vasodilator was employed as reference drug.

[2] = tested on: femoral artery; test: extremital blood flow in the femoral artery of anaesthetized dogs (vasodilating effect); assay type: in vivo; conditions: 1 mg/kg of body-weight intravenous, chloralose-pentobarbital anaesthetized dogs
Experimental: as §1

[3] = tested on: isolated guinea pig ileum; test: Inhibition of barium-chloride-induced contraction of guinea pig ileum (spasmolytic activity); conditions: for IC50: Cavia porcellus, read-out: ED50, inhibition of barium-chloride-induced contraction of guinea pig ileum
Experimental: The spasmolytic activity of the compounds was determined by using the traditional method, i.e. on the isolated guinea pig ileum [Magnus, R., Pflugers Arch. 102, 123 (1904)]. Papaverine and ethyl (+)-apovincamate used as therapeutic spasmolytics were used as reference drugs.

[4] = tested on: conscious mice under normobaric hypoxia; test: antihypoxic activity on conscious mice under normobaric hypoxia; assay type: in vivo; conditions: 50 mg/kg i.p.; for Time of survival, % / Time of survival, Mean ± deviation: 96% nitrogen and 4% oxygen; for Time of survival, %: increase over control; for Time of survival, Mean ± deviation: 30 minutes before, control 6.0 ± 1.04 min; for Protection: protected = alive for twofold time of untreated animals
Experimental: According to one method, the antihypoxic activity was studied on conscious mice under normobaric hypoxia. Five male mice were placed in a glass cylinder of 3 liters volume flown through by a gas mixture containing 96% of nitrogen and 4% of oxygen. The time interval from the allocation up to the perishment of the animals was measured for 15 minutes as a maximum. The animals were considered as protected when they were alive for a twofold time length as compared to the time of perishment of the untreated animals. The compounds under test were intraperitoneally administered to 10 animals each in a dose of 50 mg/kg of body-weight 30 minutes before allocating in the glass cylinder.

[5] = asphyxic anoxia test; assay type: in vivo; conditions: 1 h; oral, one hour before; protected = survival longer by 30% than control
Experimental: According to the asphyxic anoxia test [Caillard O. et al.: Life Sci. 16, 1607 (1975(], the animals were starved for 16 hours, then treated orally, and one hour following the treatment they were allocated in tightly closed glass bottles of 100 ml volume. The time of survival was registered as the time interval from closing the bottle up to the last respiration. The animals were considered as protected when they were alive for a time longer by 30% than the average time of survival of the control group.
(§2) According to the hypobaric hypoxia test [Baumel J. et al.: Proc. Soc. Bio. N.Y. 132, 629 (1969)], the animals were starved for 16 hours, then treated orally and one hour following the treatment they were allocated in an exsiccator where the pressure was decreased to 170 Hgmm within 20 seconds. The time of survival was registered from this time point up to the last respiration. The animals were considered as protected when they were alive for a time longer by 100% than the average time of survival of the control group. The ED50 value (i.e. the dose which was effective in 50%) was calculated from the percentage of the protected animals by using the probit analysis method.

[6] = hypobaric hypoxia test; assay type: in vivo; conditions: 1 h; oral, one hour before, 170 Hgmm; protected = survival longer by 100% than control
Experimental: as §2

[7] = tested on: mice; test: maximal electroshock model (anticonvulsive); assay type: in vivo; conditions: Mus musculus, po; 20 mA, 0.2 sec.; p.o.; read-out: Anticonvulsive effect, Max. electroshock ED50
Source text: On using the maximal electroshock model [Swinyard E. A. et at.: J. Pharmacol. Exp. Ther. 106, 319 (1959)], a shock (20 mA, 0.2 sec. HSE Shock Equipment Type 207) was given to mice weighing 22 to 24 g by using corneal electrodes. The animals were considered as protected the tonic extension of the lower extremities of which were abolished.

[8] = tested on: mice; test: metrazole seizure method (anticonvulsive); assay type: in vivo; conditions: Mus musculus, po; 125 mg/kg s.c. pentylenetetrazole; p.o.; read-out: Anticonvulsive effect, Metrazole seizure ED50
Experimental: On using the metrazole seizure method [Everett, G. M. and Richards, R. K.: J. Pharmacol. Exp. Ther., 81, 402 (1944)], a subcutaneous dose of 125 mg/kg of pentylenetetrazole was administered to mice after pre-treatment. The persistant clonic convulsions as well as the tonic extensory convulsions abolished by the treatment were registered.

[9] = in vivo; conditions: po
Experimental: On using the muscle incoordination model (rotarod method) [H. Kwibara et al.: Japan J. Pharmacol. 27, 117 (1977)], after a previous training the animals were selected which could […] for 120 seconds on a horizontal rod of 20 mm in diameter rotating with 12 rpm. A muscle-incoordinating action was stated when the animals fell down from the rotating rod within the time limits.

[10] = in vivo; parameters: species or system mice; conditions: mouse, po
Source text: On determining the muscle relaxant activity (traction test), male mice weighing 18 to 22 g were suspended by their upper legs on a horizontal wire of 5 mm in diameter.

[11] = isolated guinea pig ileum, barium chloride

Molecule	Circulatory effects (change in %): Carotid artery flow [1]	Circulatory effects (change in %): Femoral flow [2]	Time of survival, % [4] [%]	Time of survival, Mean ± deviation [4] [min]	Protection [4] [%]	ED50 [5] [mg/kg]	ED50 [6] [mg/kg]	also measured
CCC12C=C(C(=O)OCCO)n3c4c(c5c([N+](=O)[O-])cccc53)CCN(CCC1)C42 (single isomer, unassigned) [2-Hydroxyethyl 9-nitroapovincamate, 2-hydroxyethyl 9-nitroapovincamate]	+45%	+10%						
CCOC(=O)C1=CC2(CC)CCCN3CCc4c(n1c1cccc([N+](=O)[O-])c41)C32 (single isomer, unassigned) [Ethyl 9-nitroapovincamate, ethyl 9-nitroapovincamate]	+95%	0%	123	13.4 ± 2.37	80			IC50 [3, 11]: 1 µg/mL (≈ 2.53 µM)
CCOC(=O)C1=CC2(CC)CCCN3CCc4c(n1c1cc([N+](=O)[O-])ccc41)C32 (single isomer, unassigned) [Ethyl 11-nitroapovincamate, ethyl 11-nitroapovincamate]			83	11.0 ± 3.35	50			
CCOC(=O)C1=CC2(CC)CCCN3CCc4c(n1c1cccc([N+](=O)[O-])c41)C32 (single isomer, unassigned) [ethyl 9-nitroapovincamate monohydrochloride]						42.7	> 50	ED50 [7]: 25.6 mg/kg; ED50 [8]: 27.6 mg/kg; TD50 [9]: > 180 mg/kg; TD50 [10]: > 180 mg/kg
CCOC(=O)C1=C[C@]2(CC)CCCN3CCc4c(n1c1ccccc41)[C@@H]32 [Ethyl (+)-apovincamate, reference compound]	+30%	+15%	7	6.4 ± 1.58		> 50	> 50	IC50 [3, 11]: 2 µg/mL (≈ 5.71 µM)
CCC1(c2ccccc2)NC(=O)N(C)C1=O (centres unmarked) [Mephenytoin]						> 80	> 80	TD50 [9]: 78.6 mg/kg
COc1ccc(Cc2nccc3cc(OC)c(OC)cc23)cc1OC [Papaverine, reference compound]								IC50 [3]: 5.4 µg/mL (≈ 15.9 µM)
CCCOC(=O)C1=C[C@]2(CC)CCCN3CCc4c(n1c1cccc([N+](=O)[O-])c41)[C@@H]32 [Propyl 9-nitroapovincamate]								ED50, inhibition of barium-chloride-induced contraction of guinea pig ileum [3, 11]: 0.2 µg/mL
CC[C@]12CCCN3CCc4c(n(c5ccccc45)[C@@](O)(C(=O)OC)C1)[C@@H]32 [Vincamine, reference compound]			2	6.1 ± 1.30				
Acetoxyethyl 9-nitroapovincamate			68	10.1 ± 3.51	30			ED50, inhibition of barium-chloride-induced contraction of guinea pig ileum [3, 11]: 0.4 µg/mL
